Test results taken from the supplement of paper PMC10307832.

Experiments:
Experiment in all cases: relative viability (nuclei count vs DMSO), 5 days (fraction); higher = more cells survive
[1] = compound: Cc1ccccc1C(C(=O)NC1CCCCC1)N(C(=O)Cn1ccnc1C)c1cccc(F)c1 [IDH-C35] + CS(=O)(=O)N1CCN(Cc2cc3nc(-c4cccc5[nH]ncc45)nc(N4CCOCC4)c3s2)CC1 [Pictilisib] (partner 1 µM)
Summary of the method: (§1)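 Lung cancer cell lines were pin-tool dosed in 1536-well plates on the day after seeding, with either a lone drug or a fixed anchor-drug dose plus five library-drug doses (not always all listed) in √10 steps. Nuclei were counted on 4× images after 5 days. Relative viability is the ratio of treated-well to vehicle-well nuclei counts, with each value a median of duplicate plates.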

[2] = compound: Cc1ccccc1C(C(=O)NC1CCCCC1)N(C(=O)Cn1ccnc1C)c1cccc(F)c1 [IDH-C35] + O=C(CCCCCCC(=O)Nc1ccccc1)NO [Vorinostat] (partner 1 µM)
Summary of the method: as §1

[3] = compound: Cc1ccccc1C(C(=O)NC1CCCCC1)N(C(=O)Cn1ccnc1C)c1cccc(F)c1 [IDH-C35] + CC(=O)Nc1cccc(-n2c(=O)n(C3CC3)c(=O)c3c(Nc4ccc(I)cc4F)n(C)c(=O)c(C)c32)c1 [Trametinib] (partner 0.02 µM)
Summary of the method: as §1

[4] = compound: CC1=C(C(=NN1)C)CC2=C(C3=C(S2)N(C(=O)N(C3=O)C)CC(C)C)C(=O)N4C[C@@H](CO4)O + N=C(N)NC(=N)NCCc1ccccc1 [Phenformin] (partner 250 µM)
Summary of the method: as §1

| Cell Line | relative viability ([1]; first compound 0.08 µM) | relative viability ([1]; first compound 0.253 µM) | relative viability ([1]; first compound 0.8 µM) | relative viability ([1]; first compound 2.53 µM) | relative viability ([1]; first compound 8 µM) | relative viability ([2]; first compound 0.08 µM) | relative viability ([2]; first compound 0.253 µM) | relative viability ([2]; first compound 0.8 µM) | relative viability ([2]; first compound 2.53 µM) | relative viability ([2]; first compound 8 µM) | relative viability ([3]; first compound 0.08 µM) | relative viability ([3]; first compound 0.253 µM) | relative viability ([3]; first compound 0.8 µM) | relative viability ([3]; first compound 2.53 µM) | relative viability ([3]; first compound 8 µM) | relative viability ([4]; first compound 0.0025 µM) | relative viability ([4]; first compound 0.007906 µM) | relative viability ([4]; first compound 0.025 µM) | relative viability ([4]; first compound 0.07906 µM) | relative viability ([4]; first compound 0.25 µM) |
| --- | --- | --- | --- | --- | --- | --- | --- | --- | --- | --- | --- | --- | --- | --- | --- | --- | --- | --- | --- | --- |
| NCI-H23 | 0.473 | 0.494 | 0.526 | 0.397 | 0.456 | 0.609 | 0.582 | 0.578 | 0.641 | 0.636 | 0.347 | 0.456 | 0.282 | 0.392 | 0.325 | 0.794 | 0.858 | 0.839 | 0.804 | 0.774 |
| NCI-H322M | 0.459 | 0.488 | 0.471 | 0.496 | 0.526 | 0.875 | 0.866 | 0.798 | 0.911 | 0.922 | 0.451 | 0.485 | 0.55 | 0.488 | 0.507 | 0.825 | 0.673 | 0.793 | 0.93 | 0.829 |
| NCI-H358 | 0.408 | 0.33 | 0.317 | 0.366 | 0.385 | 0.709 | 0.659 | 0.686 | 0.614 | 0.611 | 0.132 | 0.152 | 0.128 | 0.159 | 0.144 | 0.35 | 0.395 | 0.337 | 0.311 | 0.36 |
| NCI-H441 | 0.588 | 0.562 | 0.456 | 0.506 | 0.446 | 0.906 | 0.74 | 0.787 | 0.683 | 0.887 | 0.435 | 0.415 | 0.5 | 0.542 | 0.484 | 0.902 | 0.943 | 0.799 | 0.847 | 0.865 |
| NCI-H460 | 0.43 | 0.438 | 0.325 | 0.326 | 0.297 | 0.723 | 0.693 | 0.676 | 0.725 | 0.649 | 0.165 | 0.133 | 0.176 | 0.165 | 0.0866 | 0.526 | 0.586 | 0.491 | 0.553 | 0.515 |
| NCI-H520 | 0.211 | 0.283 | 0.283 | 0.238 | 0.317 | 0.68 | 0.728 | 0.899 | 0.669 | 0.699 | 0.645 | 0.669 | 0.818 | 0.665 | 0.721 | 0.501 | 0.167 | 0.192 | 0.179 | 0.198 |
| NCI-H596 | 0.434 | 0.442 | 0.435 | 0.537 | 0.384 | 0.733 | 0.584 | 0.721 | 0.725 | 0.604 | 0.892 | 0.722 | 0.808 | 0.746 | 0.737 | 0.803 | 0.764 | 0.73 | 0.809 | 1.05 |
| NCI-H647 | 0.445 | 0.411 | 0.339 |  | 0.417 | 0.541 | 0.565 | 0.577 | 0.769 | 0.528 | 0.488 | 0.378 | 0.444 | 0.473 | 0.47 | 0.655 | 0.369 | 0.393 | 0.555 | 0.53 |
